Assay results as given in patent publication US20250320206A1, “STAT6 DEGRADERS” (Gilead Sciences, Inc., priority 2024, published 2025).
pEC50: −log10 of the molar value.

Key:
STAT6 = target: T1, STAT6 (Homo sapiens, UniProt P42226); assay: Stat6 Degrader Assay (HiBiT based, HeLa LgBiT clone 4.14); type: cell-based; conditions: HeLa LgBiT clone 4.14 HiBiT-STAT6, 4-24 h incubation; values given for compounds with >80% Emax; geometric mean; read-out: STAT6 degradation DC50
T1 construct: These cells express endogenous STAT6; host or cells: HeLa LgBiT clone 4.14
T1 sequence (P42226 1-847): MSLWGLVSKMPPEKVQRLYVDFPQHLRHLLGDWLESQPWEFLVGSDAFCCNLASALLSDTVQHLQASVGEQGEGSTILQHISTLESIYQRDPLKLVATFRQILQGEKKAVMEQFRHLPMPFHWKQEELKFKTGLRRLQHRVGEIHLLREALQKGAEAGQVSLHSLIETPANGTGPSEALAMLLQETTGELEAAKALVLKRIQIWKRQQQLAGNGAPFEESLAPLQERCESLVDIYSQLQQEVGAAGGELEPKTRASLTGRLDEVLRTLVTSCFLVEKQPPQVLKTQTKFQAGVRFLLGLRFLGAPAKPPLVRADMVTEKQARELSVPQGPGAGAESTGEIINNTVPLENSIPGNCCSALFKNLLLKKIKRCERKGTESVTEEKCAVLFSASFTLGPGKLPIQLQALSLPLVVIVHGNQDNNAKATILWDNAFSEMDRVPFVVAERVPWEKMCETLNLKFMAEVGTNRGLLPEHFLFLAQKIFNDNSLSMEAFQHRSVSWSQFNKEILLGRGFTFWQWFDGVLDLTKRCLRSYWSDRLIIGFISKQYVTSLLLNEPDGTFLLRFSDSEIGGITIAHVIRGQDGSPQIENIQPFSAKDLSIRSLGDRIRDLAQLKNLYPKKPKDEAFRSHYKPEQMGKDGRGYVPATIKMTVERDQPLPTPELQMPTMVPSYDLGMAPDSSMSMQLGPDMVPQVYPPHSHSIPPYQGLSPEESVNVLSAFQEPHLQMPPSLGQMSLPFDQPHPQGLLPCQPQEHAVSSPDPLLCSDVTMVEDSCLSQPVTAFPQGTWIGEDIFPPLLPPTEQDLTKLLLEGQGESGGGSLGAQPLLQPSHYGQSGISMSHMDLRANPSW
Method in brief: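 HeLa LgBiT clone 4.14 cells with CRISPR HiBiT-tagged endogenous STAT6, 5000 cells/well, compound dosed then incubated 4-24 h at 37° C, 5% CO2. Nano-Glo substrate added, 0.5 h, luminescence read as non-degraded STAT6. Terfenadine 50 μM (cell kill) defines 100% degradation.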

[1] = test system: Eotaxin-3 release in human whole blood stimulated with IL-4; assay: Human Whole Blood Eotaxin-3 Assay (IL-4 stimulated eotaxin-3 release); type: cell-based; conditions: IL-4 stimulation, 48 h, values given for compounds with >80% Emax, geometric mean
Method in brief: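 Lithium-heparin human whole blood preincubated 2 h at 37° C with 4-fold serially diluted compounds (0.5% DMSO), then stimulated with recombinant human IL-4 ([…]) for 48 h. Eotaxin-3 (CCL26) in supernatant quantified by MSD immunoassay.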

Compound | DC50 (STAT6) [nM] | pEC50 [1]
C[C@H]1CN(Cc2ccc3c(c2)C2(CC2)C(=O)N3[C@@H]2CCC(=O)NC2=O)CCN1CC1CCN(C(=O)c2cc(F)c(C3=CCN([C@@H](C)c4cc5c(-n6cc(F)c7c(c6=O)CCN7)ccnc5n4C)CC3)c(F)c2)CC1 [Example 3u127, (R)-3-(5′-(((S)-4-((1-(3,5-difluoro-4-(1-((S)-1-(4-(7-fluoro-4-oxo-1,2,3,4-tetrahydro-5H-pyrrolo[3,2-c]pyridin-5-yl)-1-methyl-1H-pyrrolo[2,3-b]pyridin-2-yl)ethyl)-1,2,3,6-tetrahydropyridin-4-yl)benzoyl)piperidin-4-yl)methyl)-3-methylpiperazin-1-yl)methyl)-2′-oxospiro[cyclopropane-1,3′-indolin]-1′-yl)piperidine-2,6-dione] | 5.4 | 7.83
CNc1cc(=O)n(-c2ccnc3c2cc([C@H](C)N2CC=C(c4c(C)cc(C(=O)N5CCC(CN6CCN(Cc7ccc8c(c7)n(C7CC7)c(=O)n8[C@@H]7CCC(=O)NC7=O)C[C@@H]6C)CC5)cc4F)CC2)n3C)cc1F (single isomer, unassigned) [Example 3u120] | 1 | 8.43
CNc1cc(=O)n(-c2ccnc3c2cc([C@H](C)N2CC=C(c4c(C)cc(C(=O)N5CCC(CN6CCN(c7ccc8c(c7)C7(CC7)C(=O)N8[C@@H]7CCC(=O)NC7=O)C[C@@H]6C)CC5)cc4F)CC2)n3C)cc1F (single isomer, unassigned) [Example 3u64] | 7.3 | 7.30
C[C@H]1CN(Cc2ccc3c(c2)n(C2CC2)c(=O)n3C2CCC(=O)NC2=O)CCN1CC1CCN(C(=O)c2cc(F)c(C3CCN(Cc4cc5c(-n6ccc7c(c6=O)CCN7)ccnc5n4C)CC3)c(F)c2)CC1 (stereo partly drawn) [Example 3u106, 3-(3-cyclopropyl-5-(((S)-4-((1-(3,5-difluoro-4-(1-((1-methyl-4-(4-oxo-1,2,3,4-tetrahydro-5H-pyrrolo[3,2-c]pyridin-5-yl)-1H-pyrrolo[2,3-b]pyridin-2-yl)methyl)piperidin-4-yl)benzoyl)piperidin-4-yl)methyl)-3-methylpiperazin-1-yl)methyl)-2-oxo-2,3-dihydro-1H-benzo[d]imidazol-1-yl)piperidine-2,6-dione] | 2.3 | 9.10
CNc1cc(=O)n(-c2ccnc3c2cc([C@H](C)N2CC=C(c4c(C)cc(C(=O)N5CCC(CN6CCN(c7ccc8c(c7)C7(CC7)C(=O)N8C7CCC(=O)NC7=O)CC6)CC5)cc4F)CC2)n3C)cc1F (stereo partly drawn) [Example 3u302, 3-(5′-(4-((1-(3-fluoro-4-(1-((S)-1-(4-(5-fluoro-4-(methylamino)-2-oxopyridin-1 (2H)-yl)-1-methyl-1H-pyrrolo[2,3-b]pyridin-2-yl)ethyl)-1,2,3,6-tetrahydropyridin-4-yl)-5-methylbenzoyl)piperidin-4-yl)methyl)piperazin-1-yl)-2′-oxospiro[cyclopropane-1,3′-indolin]-1′-yl)piperidine-2,6-dione] | 4.9 | 7.53
CNc1cc(=O)n(-c2ccnc3c2cc([C@H](C)N2CC=C(c4c(C)cc(C(=O)N5CCC(CN6CCN(c7ccc8c(c7)C(C)(C)C(=O)N8[C@H]7CCC(=O)NC7=O)CC6)CC5)cc4F)CC2)n3C)cc1F (single isomer, unassigned) [Example 3u285] | 7.8 | 7.00
CNc1cc(=O)n(-c2ccnc3c2cc([C@H](C)N2CC=C(c4c(C)cc(C(=O)N5CCC(CN6CCN(Cc7ccc8c(c7)C(C)(C)C(=O)N8[C@H]7CCC(=O)NC7=O)C[C@@H]6C)CC5)cc4F)CC2)n3C)cc1F (single isomer, unassigned) [Example 3u173] | 3.1 | 8.11
CNc1cc(=O)n(-c2ccnc3c2cc(CN2CCC(c4c(F)cc(C(=O)N5CCC(CN6CCN(Cc7ccc8c(c7)n(C)c(=O)n8[C@H]7CCC(=O)NC7=O)C[C@@H]6C)CC5)cc4F)CC2)n3C)cc1F (single isomer, unassigned) [Example 3u61] | 1.9 | 8.92
CNc1ccn(-c2ccnc3c2cc(CN2CCC(c4c(F)cc(C(=O)N5CCC(CN6CCN(Cc7ccc8c(c7)n(C)c(=O)n8[C@H]7CCC(=O)NC7=O)CC6)CC5)cc4F)CC2)n3C)c(=O)c1 (single isomer, unassigned) [Example 3u30] | 2.2 | 8.80
CNc1cc(=O)n(-c2ccnc3c2cc([C@H](C)N2CC=C(c4c(C)cc(C(=O)N5CCC(CN6CCN(c7ccc8c(c7)C(C)(C)C(=O)N8[C@@H]7CCC(=O)NC7=O)CC6)CC5)cc4F)CC2)n3C)cc1F (single isomer, unassigned) [Example 3u286] | 12.5 | 7.60
C[C@H]1CN(Cc2ccc3c(c2)C2(CCC2)C(=O)N3C2CCC(=O)NC2=O)CCN1CC1CCN(C(=O)c2cc(F)c(C3CCN(Cc4cc5c(-n6ccc7c(c6=O)CCN7)ccnc5n4C)CC3)c(F)c2)CC1 (stereo partly drawn) [Example 3u101, 3-(5′-(((S)-4-((1-(3,5-difluoro-4-(1-((1-methyl-4-(4-oxo-1,2,3,4-tetrahydro-5H-pyrrolo[3,2-c]pyridin-5-yl)-1H-pyrrolo[2,3-b]pyridin-2-yl)methyl)piperidin-4-yl)benzoyl)piperidin-4-yl)methyl)-3-methylpiperazin-1-yl)methyl)-2′-oxospiro[cyclobutane-1,3′-indolin]-1′-yl)piperidine-2,6-dione] | 2.3 | 8.62

These reach a lower DC50 (STAT6). Values come first.

DC50 (STAT6) [nM] | pEC50 [1] | Compound
0.7 | 9.52 | C[C@H]1CN(Cc2ccc3c(c2)n(C)c(=O)n3C2CCC(=O)NC2=O)CCN1CC1CCN(C(=O)c2ccc(C3CCN([C@@H](C)c4cc5c(-n6ccc7c(c6=O)CCN7)ccnc5n4C)CC3)cc2)CC1 (stereo partly drawn) [Example 3e44, 3-(3-methyl-5-(((S)-3-methyl-4-((1-(4-(1-((S)-1-(1-methyl-4-(4-oxo-1,2,3,4-tetrahydro-5H-pyrrolo[3,2-c]pyridin-5-yl)-1H-pyrrolo[2,3-b]pyridin-2-yl)ethyl)piperidin-4-yl)benzoyl)piperidin-4-yl)methyl)piperazin-1-yl)methyl)-2-oxo-2,3-dihydro-1H-benzo[d]imidazol-1-yl)piperidine-2,6-dione]
0.9 | 7.52 | CNc1cc(=O)n(-c2ccnc3c2cc(CN2CCC(c4c(F)cc(C(=O)N5CCC(CN6CCN(Cc7ccc8c(c7)C(C)(C)C(=O)N8[C@@H]7CCC(=O)NC7=O)C[C@@H]6C)CC5)cc4F)CC2)n3C)cc1F (single isomer, unassigned) [Example 3u50]
0.8 | 8.10 | CNc1ccn(-c2ccnc3c2cc(CN2CC=C(c4c(F)cc(C(=O)N5CCC(CN6CCN(Cc7ccc8c(c7)C(C)(C)C(=O)N8[C@@H]7CCC(=O)NC7=O)C[C@@H]6C)CC5)cc4F)CC2)n3C)c(=O)c1 (single isomer, unassigned) [Example 3u47]
0.1 | 9.70 | CNc1cc(=O)n(-c2ccnc3c2cc([C@H](C)N2CC=C(c4c(C)cc(C(=O)N(C)c5ccc(N6CCC(Cc7ccc8c(c7)n(C)c(=O)n8C7CCC(=O)NC7=O)CC6)nc5)cc4F)CC2)n3C)cc1F (stereo partly drawn) [Example 3u241, N-(6-(4-((1-(2,6-dioxopiperidin-3-yl)-3-methyl-2-oxo-2,3-dihydro-1H-benzo[d]-imidazol-5-yl)methyl)piperidin-1-yl)pyridin-3-yl)-3-fluoro-4-(1-((S)-1-(4-(5-fluoro-4-(methylamino)-2-oxopyridin-1 (2H)-yl)-1-methyl-1H-pyrrolo[2,3-b]pyridin-2-yl)ethyl)-1,2,3,6-tetrahydropyridin-4-yl)-N,5-dimethylbenzamide]
0.1 | 9.10 | CNc1ccn(-c2ccnc3c2cc([C@H](C)N2CC=C(c4c(C)cc(C(=O)N(C)c5ccc(C6CCN(Cc7ccc8c(c7)n(C)c(=O)n8C7CCC(=O)NC7=O)CC6)nc5)cc4F)CC2)n3C)c(=O)c1 (stereo partly drawn) [Example 3u231, N-(6-(1-((1-(2,6-dioxopiperidin-3-yl)-3-methyl-2-oxo-2,3-dihydro-1H-benzo[d]-imidazol-5-yl)methyl)piperidin-4-yl)pyridin-3-yl)-3-fluoro-N,5-dimethyl-4-(1-((S)-1-(1-methyl-4-(4-(methylamino)-2-oxopyridin-1 (2H)-yl)-1H-pyrrolo[2,3-b]pyridin-2-yl)ethyl)-1,2,3,6-tetrahydropyridin-4-yl)benzamide]
